pIC50: −log10 of the molar value.
Legend:
MmCLK1 = MmCLK1 (Mus musculus, UniProt P22518); test: ADP-Glo kinase assay; format: biochemical, Mus musculus (Mm)
Method: (§1) Kinase activities were determined using the ADP-Glo methodology (ADP-Glo Kinase Assay; Promega) according to the assay described by Nguyen et al.[32] except for MmCLK1. The later was assayed in the following buffer: 10 mM MgCl2, 1 mM EGTA, 1 mM DTT, 25 mM Tris-HCl pH 7.5, 50 µg/ml heparin, 0.15 mg/ml BSA, with 0.027 µg/µl of the following peptide: GRSRSRSRSRSR as substrate.

RnDYRK1A = RnDYRK1A (Rattus norvegicus, UniProt Q63470); test: ADP-Glo kinase assay; format: biochemical, Rattus norvegicus (Rn)
Method: as §1

AMPK A2/B1/G1 = AMPK A2/B1/G1 (Homo sapiens, UniProt P54646); test: SelectScreen ZLYTE; format: biochemical; conditions: ATP Km, read-out: Percentage of inhibition
Procedure, shortened: (§2)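 Values reflect inhibition measured at 1 μM of compound in a full-panel kinase selectivity survey; kinases reaching at least 80% inhibition were highlighted.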

BRAF = target: T1, BRAF (Homo sapiens, UniProt P15056); test: SelectScreen ZLYTE; format: biochemical; conditions: ATP 100 µM, read-out: Percentage of inhibition
T1 construct: purchased Life Technologies (SelectScreen Whole Panel)
Procedure, shortened: as §2

CDK1/cyclin B = target: T2, CDK1/cyclin B (Homo sapiens, UniProt P06493); test: SelectScreen ZLYTE; format: biochemical; conditions: ATP Km, read-out: Percentage of inhibition
T2 construct: purchased Life Technologies
Procedure, shortened: as §2

CDK18/cyclin Y = target: T3, CDK18/cyclin Y (Homo sapiens, UniProt Q07002); test: SelectScreen ZLYTE; format: biochemical; conditions: ATP Km, read-out: Percentage of inhibition
T3 construct: purchased Life Technologies
Procedure, shortened: as §2

CDK2/cyclin A = target: T4, CDK2/cyclin A (Homo sapiens, UniProt P24941); test: SelectScreen ZLYTE; format: biochemical; conditions: ATP Km, read-out: Percentage of inhibition
T4 construct: purchased Life Technologies
Procedure, shortened: as §2

CSNK1G1 (CK1 gamma 1) = CSNK1G1 (CK1 gamma 1) (Homo sapiens, UniProt Q9HCP0); test: SelectScreen ZLYTE; format: biochemical; conditions: ATP Km, read-out: Percentage of inhibition
Procedure, shortened: as §2

DYRK3 = target: T5, DYRK3 (Homo sapiens, UniProt O43781); test: SelectScreen ZLYTE; format: biochemical; conditions: ATP Km, read-out: Percentage of inhibition
T5 construct: purchased Life Technologies (SelectScreen service)
Procedure, shortened: as §2

EPHA4 = target: T6, EPHA4 (Homo sapiens, UniProt P54764); test: SelectScreen ZLYTE; format: biochemical; conditions: ATP Km, read-out: Percentage of inhibition
T6 construct: purchased Life Technologies (SelectScreen)
Procedure, shortened: as §2

EPHA8 = target: T7, EPHA8 (Homo sapiens, UniProt P29322); test: SelectScreen ZLYTE; format: biochemical; conditions: ATP Km, read-out: Percentage of inhibition
T7 construct: purchased Life Technologies (SelectScreen Whole Panel service)
Procedure, shortened: as §2

HCK = target: T8, HCK (Homo sapiens, UniProt P08631); test: SelectScreen ZLYTE; format: biochemical; conditions: ATP Km, read-out: Percentage of inhibition
T8 construct: purchased Life Technologies
Procedure, shortened: as §2

HIPK2 = target: T9, HIPK2 (Homo sapiens, UniProt Q9H2X6); test: SelectScreen ZLYTE; format: biochemical; conditions: ATP Km, read-out: Percentage of inhibition
T9 construct: purchased Life Technologies (SelectScreen service)
Procedure, shortened: as §2

HIPK3 (YAK1) = target: T10, HIPK3 (YAK1) (Homo sapiens, UniProt Q9H422); test: SelectScreen ZLYTE; format: biochemical; conditions: ATP Km, read-out: Percentage of inhibition
T10 construct: purchased Life Technologies
Procedure, shortened: as §2

KIT T670I = target: T11, KIT T670I (Homo sapiens, UniProt P10721, T670I); test: SelectScreen ZLYTE; format: biochemical; conditions: ATP Km, read-out: Percentage of inhibition
T11 construct: purchased Life Technologies
Procedure, shortened: as §2

KSR2 = KSR2 (Homo sapiens, UniProt Q6VAB6); test: SelectScreen ZLYTE; format: biochemical; conditions: ATP Km, read-out: Percentage of inhibition
Procedure, shortened: as §2

MAP2K2 (MEK2) = target: T12, MAP2K2 (MEK2) (Homo sapiens, UniProt P36507); test: SelectScreen ZLYTE; format: biochemical; conditions: ATP 100 µM, read-out: Percentage of inhibition
T12 construct: purchased Life Technologies
Procedure, shortened: as §2

MAPKAPK3 = target: T13, MAPKAPK3 (Homo sapiens, UniProt Q16644); test: SelectScreen ZLYTE; format: biochemical; conditions: ATP Km, read-out: Percentage of inhibition
T13 construct: purchased Life Technologies
Procedure, shortened: as §2

MARK3 = target: T14, MARK3 (Homo sapiens, UniProt P27448); test: SelectScreen ZLYTE; format: biochemical; conditions: ATP Km, read-out: Percentage of inhibition
T14 construct: purchased Life Technologies
Procedure, shortened: as §2

NEK4 = target: T15, NEK4 (Homo sapiens, UniProt P51957); test: SelectScreen ZLYTE; format: biochemical; conditions: ATP Km, read-out: Percentage of inhibition
T15 construct: purchased Life Technologies
Procedure, shortened: as §2

PDGFRA V561D = target: T16, PDGFRA V561D (Homo sapiens, UniProt P16234, V561D); test: SelectScreen ZLYTE; format: biochemical; conditions: ATP Km, read-out: Percentage of inhibition
T16 construct: purchased Life Technologies (SelectScreen service)
Procedure, shortened: as §2

PRKG1 = target: T17, PRKG1 (Homo sapiens, UniProt Q13976); test: SelectScreen ZLYTE; format: biochemical; conditions: ATP Km, read-out: Percentage of inhibition
T17 construct: purchased Life Technologies (SelectScreen Whole Panel service)
Procedure, shortened: as §2

PTK2B (FAK2) = target: T18, PTK2B (FAK2) (Homo sapiens, UniProt Q14289); test: SelectScreen ZLYTE; format: biochemical; conditions: ATP Km, read-out: Percentage of inhibition
T18 construct: purchased Life Technologies (SelectScreen Whole Panel service)
Procedure, shortened: as §2

CDK7/cyclin H/MNAT1 = target: T19, CDK7/cyclin H/MNAT1 (Homo sapiens, UniProt P50613); test: SelectScreen Adapta; format: biochemical; conditions: ATP Km, read-out: Percentage of inhibition
T19 construct: purchased Life Technologies
Method: (§3) We further evaluated the selectivity profile of compound 55 on a larger panel of kinases (SelectScreen Whole Panel, Life Technologies). The inhibition profile of 55, evaluated at 1 μM, is depicted on a dendrogram on Figure 3 where kinases inhibited by a minimum of 80% are shown. A full list of the kinases tested is shown on Table S1 in supplementary information.

IRAK1 = target: T20, IRAK1 (Homo sapiens, UniProt P51617); test: SelectScreen Adapta; format: biochemical; conditions: ATP Km, read-out: Percentage of inhibition
T20 construct: purchased Life Technologies (SelectScreen service)
Method: as §3

LRRK2 FL = target: T21, LRRK2 FL (Homo sapiens, UniProt Q5S007); test: SelectScreen Adapta; format: biochemical; conditions: ATP Km, read-out: Percentage of inhibition
T21 construct: purchased Life Technologies
Method: as §3

LRRK2 G2019S = target: T22, LRRK2 G2019S (Homo sapiens, UniProt Q5S007, G2019S); test: SelectScreen Adapta; format: biochemical; conditions: ATP Km, read-out: Percentage of inhibition
T22 construct: purchased Life Technologies
Method: as §3

LRRK2 G2019S FL = target: T23, LRRK2 G2019S FL (Homo sapiens, UniProt Q5S007, G2019S); test: SelectScreen Adapta; format: biochemical; conditions: ATP Km, read-out: Percentage of inhibition
T23 construct: LRRK2 G2019S FL; purchased Life Technologies (SelectScreen Whole Panel)
Method: as §3

PIK3C2A (PI3K-C2 alpha) = PIK3C2A (PI3K-C2 alpha) (Homo sapiens, UniProt O00443); test: SelectScreen Adapta; format: biochemical; conditions: ATP Km, read-out: Percentage of inhibition
Method: as §3

[1] = target: T24, PIK3CB/PIK3R2 (p110 beta/p85 beta) (Homo sapiens, UniProt P42338); test: SelectScreen Adapta; format: biochemical; conditions: ATP Km, read-out: Percentage of inhibition
T24 construct: purchased Life Technologies
Method: as §3

PIK3CG (p110 gamma) = PIK3CG (p110 gamma) (Homo sapiens, UniProt P48736); test: SelectScreen Adapta; format: biochemical; conditions: ATP Km, read-out: Percentage of inhibition
Method: as §3

PIP5K1B = target: T25, PIP5K1B (Homo sapiens, UniProt O14986); test: SelectScreen Adapta; format: biochemical; conditions: ATP 10 µM, read-out: Percentage of inhibition
T25 construct: purchased Life Technologies
Method: as §3

PIP5K1C = target: T26, PIP5K1C (Homo sapiens, UniProt O60331); test: SelectScreen Adapta; format: biochemical; conditions: ATP 10 µM, read-out: Percentage of inhibition
T26 construct: purchased Life Technologies (SelectScreen Whole Panel service)
Method: as §3

Chain of MmCLK1 (P22518 whole entry): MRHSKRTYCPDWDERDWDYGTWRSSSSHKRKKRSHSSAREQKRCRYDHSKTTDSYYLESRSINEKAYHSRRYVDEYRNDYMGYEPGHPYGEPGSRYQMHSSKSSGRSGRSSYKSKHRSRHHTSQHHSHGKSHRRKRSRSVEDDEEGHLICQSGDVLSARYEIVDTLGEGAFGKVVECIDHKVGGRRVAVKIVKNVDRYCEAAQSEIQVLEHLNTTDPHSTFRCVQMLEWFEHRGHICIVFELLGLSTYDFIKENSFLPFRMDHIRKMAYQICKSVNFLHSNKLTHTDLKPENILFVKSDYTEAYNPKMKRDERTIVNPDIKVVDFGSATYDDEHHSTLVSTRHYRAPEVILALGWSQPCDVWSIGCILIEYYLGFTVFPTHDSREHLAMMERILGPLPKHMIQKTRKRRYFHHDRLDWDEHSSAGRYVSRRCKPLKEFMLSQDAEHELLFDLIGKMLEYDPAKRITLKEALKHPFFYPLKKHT
T19 sequence (P50613 whole entry): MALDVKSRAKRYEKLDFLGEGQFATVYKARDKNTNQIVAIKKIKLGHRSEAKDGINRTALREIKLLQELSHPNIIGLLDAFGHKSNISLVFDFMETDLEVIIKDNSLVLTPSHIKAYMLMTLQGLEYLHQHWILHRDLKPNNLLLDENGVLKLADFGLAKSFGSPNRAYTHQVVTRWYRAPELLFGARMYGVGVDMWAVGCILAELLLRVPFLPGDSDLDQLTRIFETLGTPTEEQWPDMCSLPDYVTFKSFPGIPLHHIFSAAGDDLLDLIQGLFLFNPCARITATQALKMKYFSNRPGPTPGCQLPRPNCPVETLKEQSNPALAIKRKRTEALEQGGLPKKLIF
T19 sequence (P51946 whole entry partner): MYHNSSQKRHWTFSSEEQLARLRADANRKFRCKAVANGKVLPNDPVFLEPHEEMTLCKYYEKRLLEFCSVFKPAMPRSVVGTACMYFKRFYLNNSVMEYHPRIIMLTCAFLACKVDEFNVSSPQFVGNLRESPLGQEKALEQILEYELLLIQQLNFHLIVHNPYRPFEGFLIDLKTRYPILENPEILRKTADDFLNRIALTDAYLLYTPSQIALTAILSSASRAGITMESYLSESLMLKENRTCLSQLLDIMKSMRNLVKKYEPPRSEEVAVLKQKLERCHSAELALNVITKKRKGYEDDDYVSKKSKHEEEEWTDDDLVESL
T19 sequence (P51948 whole entry partner): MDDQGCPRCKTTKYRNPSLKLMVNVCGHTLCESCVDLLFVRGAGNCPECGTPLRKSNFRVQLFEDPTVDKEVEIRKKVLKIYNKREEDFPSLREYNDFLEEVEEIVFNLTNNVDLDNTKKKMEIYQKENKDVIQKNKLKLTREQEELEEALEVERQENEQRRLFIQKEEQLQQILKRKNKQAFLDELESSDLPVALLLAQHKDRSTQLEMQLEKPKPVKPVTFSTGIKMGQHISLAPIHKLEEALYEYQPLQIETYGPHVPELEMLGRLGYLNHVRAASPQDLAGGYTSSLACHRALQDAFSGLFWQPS
T25 sequence (O14986 whole entry): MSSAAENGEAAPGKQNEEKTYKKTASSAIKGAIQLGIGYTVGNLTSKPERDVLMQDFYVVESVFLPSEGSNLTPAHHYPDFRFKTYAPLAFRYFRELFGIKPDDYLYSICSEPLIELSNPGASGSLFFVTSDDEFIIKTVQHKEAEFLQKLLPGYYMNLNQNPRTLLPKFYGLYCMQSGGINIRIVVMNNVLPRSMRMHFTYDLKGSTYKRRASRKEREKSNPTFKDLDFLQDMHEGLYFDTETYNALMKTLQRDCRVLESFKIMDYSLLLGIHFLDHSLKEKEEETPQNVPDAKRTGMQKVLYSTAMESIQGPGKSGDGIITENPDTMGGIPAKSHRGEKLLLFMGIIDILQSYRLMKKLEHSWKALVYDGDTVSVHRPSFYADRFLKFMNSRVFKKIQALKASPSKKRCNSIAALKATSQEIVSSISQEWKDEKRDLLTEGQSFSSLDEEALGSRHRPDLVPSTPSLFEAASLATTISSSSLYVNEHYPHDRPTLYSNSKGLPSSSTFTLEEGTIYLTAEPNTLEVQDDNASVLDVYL
T11 sequence (P10721 26-976 T670I): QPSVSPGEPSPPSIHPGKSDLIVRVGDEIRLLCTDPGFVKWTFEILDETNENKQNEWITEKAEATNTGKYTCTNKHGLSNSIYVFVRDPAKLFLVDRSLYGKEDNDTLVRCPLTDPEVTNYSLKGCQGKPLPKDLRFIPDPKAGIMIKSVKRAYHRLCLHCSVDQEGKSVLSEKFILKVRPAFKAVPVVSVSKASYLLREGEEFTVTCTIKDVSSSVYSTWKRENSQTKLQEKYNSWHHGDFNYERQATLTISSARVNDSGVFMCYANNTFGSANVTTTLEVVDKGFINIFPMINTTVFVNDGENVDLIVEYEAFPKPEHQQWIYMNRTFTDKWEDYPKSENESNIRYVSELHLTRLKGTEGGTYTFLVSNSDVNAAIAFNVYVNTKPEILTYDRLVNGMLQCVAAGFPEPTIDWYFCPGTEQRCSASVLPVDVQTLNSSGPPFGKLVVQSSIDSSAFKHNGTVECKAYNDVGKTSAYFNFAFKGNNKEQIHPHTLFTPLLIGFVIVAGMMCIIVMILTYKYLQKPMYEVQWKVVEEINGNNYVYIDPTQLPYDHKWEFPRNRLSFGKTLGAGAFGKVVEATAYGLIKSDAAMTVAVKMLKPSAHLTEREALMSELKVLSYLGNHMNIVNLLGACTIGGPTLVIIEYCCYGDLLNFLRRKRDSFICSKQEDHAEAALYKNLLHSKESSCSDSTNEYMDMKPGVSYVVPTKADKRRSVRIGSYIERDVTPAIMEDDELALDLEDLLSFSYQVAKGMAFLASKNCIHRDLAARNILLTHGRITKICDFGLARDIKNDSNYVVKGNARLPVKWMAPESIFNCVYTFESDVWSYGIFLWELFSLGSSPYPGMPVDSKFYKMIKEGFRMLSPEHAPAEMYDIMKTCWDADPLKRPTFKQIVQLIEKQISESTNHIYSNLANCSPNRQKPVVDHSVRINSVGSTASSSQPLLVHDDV
T26 sequence (O60331 whole entry): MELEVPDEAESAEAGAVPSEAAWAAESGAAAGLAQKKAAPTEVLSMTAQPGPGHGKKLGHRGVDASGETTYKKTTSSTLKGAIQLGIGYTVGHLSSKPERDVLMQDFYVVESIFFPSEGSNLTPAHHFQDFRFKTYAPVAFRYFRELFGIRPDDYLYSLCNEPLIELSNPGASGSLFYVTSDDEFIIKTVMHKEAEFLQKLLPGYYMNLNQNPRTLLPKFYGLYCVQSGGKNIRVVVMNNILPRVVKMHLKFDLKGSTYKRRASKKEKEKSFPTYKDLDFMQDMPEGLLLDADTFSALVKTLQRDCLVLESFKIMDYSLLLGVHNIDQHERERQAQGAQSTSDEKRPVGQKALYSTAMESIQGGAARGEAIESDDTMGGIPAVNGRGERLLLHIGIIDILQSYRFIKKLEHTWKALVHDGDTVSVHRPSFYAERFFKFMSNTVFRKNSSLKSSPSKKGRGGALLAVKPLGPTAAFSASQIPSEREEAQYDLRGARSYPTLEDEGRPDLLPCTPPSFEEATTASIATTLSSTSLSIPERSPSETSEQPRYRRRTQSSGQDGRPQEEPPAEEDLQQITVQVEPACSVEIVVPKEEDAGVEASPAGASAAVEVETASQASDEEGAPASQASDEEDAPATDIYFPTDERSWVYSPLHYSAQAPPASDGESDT
Chain of KSR2 (Q6VAB6 whole entry): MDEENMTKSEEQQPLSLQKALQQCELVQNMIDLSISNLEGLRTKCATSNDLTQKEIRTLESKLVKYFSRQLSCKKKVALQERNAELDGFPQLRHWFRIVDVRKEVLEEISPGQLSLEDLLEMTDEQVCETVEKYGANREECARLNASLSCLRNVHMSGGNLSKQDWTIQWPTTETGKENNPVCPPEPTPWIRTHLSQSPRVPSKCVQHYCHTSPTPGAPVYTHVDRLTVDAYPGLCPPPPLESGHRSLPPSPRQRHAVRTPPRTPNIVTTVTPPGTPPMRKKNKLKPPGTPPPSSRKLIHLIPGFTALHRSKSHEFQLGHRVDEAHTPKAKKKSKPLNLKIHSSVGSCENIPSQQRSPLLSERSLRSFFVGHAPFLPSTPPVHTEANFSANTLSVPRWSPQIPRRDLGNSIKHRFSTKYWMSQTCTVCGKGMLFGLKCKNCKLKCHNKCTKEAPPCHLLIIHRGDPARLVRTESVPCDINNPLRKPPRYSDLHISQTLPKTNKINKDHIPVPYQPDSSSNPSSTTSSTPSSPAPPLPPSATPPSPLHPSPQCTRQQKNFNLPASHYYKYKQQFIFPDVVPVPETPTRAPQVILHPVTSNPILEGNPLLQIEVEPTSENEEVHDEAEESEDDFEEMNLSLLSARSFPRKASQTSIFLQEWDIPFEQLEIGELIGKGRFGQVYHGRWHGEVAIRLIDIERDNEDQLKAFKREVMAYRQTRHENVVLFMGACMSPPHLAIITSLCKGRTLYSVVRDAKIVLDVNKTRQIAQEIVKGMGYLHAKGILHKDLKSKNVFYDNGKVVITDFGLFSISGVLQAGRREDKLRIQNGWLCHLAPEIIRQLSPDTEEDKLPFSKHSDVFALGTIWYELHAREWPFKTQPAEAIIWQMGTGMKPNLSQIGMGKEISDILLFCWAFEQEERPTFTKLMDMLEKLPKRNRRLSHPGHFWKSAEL
T12 sequence (P36507 whole entry): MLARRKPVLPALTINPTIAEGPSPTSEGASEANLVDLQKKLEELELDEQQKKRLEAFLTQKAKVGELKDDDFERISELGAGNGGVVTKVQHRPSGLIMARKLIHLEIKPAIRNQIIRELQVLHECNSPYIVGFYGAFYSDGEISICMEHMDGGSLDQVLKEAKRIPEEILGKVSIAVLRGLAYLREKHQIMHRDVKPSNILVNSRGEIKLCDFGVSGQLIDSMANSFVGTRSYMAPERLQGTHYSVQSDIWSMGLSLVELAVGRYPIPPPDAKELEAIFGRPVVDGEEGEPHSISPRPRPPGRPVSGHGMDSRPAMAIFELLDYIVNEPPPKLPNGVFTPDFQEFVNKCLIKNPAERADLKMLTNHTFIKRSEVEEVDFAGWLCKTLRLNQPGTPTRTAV

## COc1ccc2[nH]c3c(=O)[nH]c4ccc(O)cc4c3c2c1 [Compound 55, 2-Hydroxy-10-methoxy-5,7-dihydro-6H-indolo[2,3-c]quinolin-6-one]
MmCLK1; 1 μM, mean n = 2, % of maximum activity of DMSO control, read-out: % Residual activity at 1 μM CLK1
  remaining activity at 1 µM: 14%
MmCLK1; IC50 CLK1/IC50 Haspin
  Selectivity index CLK1/Haspin: 17
MmCLK1; dose-response curve, each point in duplicate, read-out: Kinase inhibition (IC50) CLK1
  pIC50: 7.48
RnDYRK1A; IC50 DYRK1A/IC50 Haspin
  Selectivity index DYRK/Haspin: 65
RnDYRK1A; dose-response curve, each point in duplicate, read-out: Kinase inhibition (IC50) DYRK1A
  pIC50: 6.89
RnDYRK1A; mean n = 2, % of maximum activity of DMSO control, read-out: % Residual activity at 1 μM DYRK1A
  remaining activity: 2%
AMPK A2/B1/G1
  inhibition at 1 µM: 58%
BRAF
  inhibition at 1 µM: 100%
CDK1/cyclin B
  inhibition at 1 µM: 35%
CDK18/cyclin Y
  inhibition at 1 µM: 36%
CDK2/cyclin A
  inhibition at 1 µM: 34%
CSNK1G1 (CK1 gamma 1)
  inhibition at 1 µM: 20%
DYRK3
  inhibition at 1 µM: 86%
EPHA4
  inhibition at 1 µM: 7%
EPHA8
  inhibition at 1 µM: 10%
HCK
  inhibition at 1 µM: 38%
HIPK2
  inhibition at 1 µM: 74%
HIPK3 (YAK1)
  inhibition at 1 µM: 35%
KIT T670I
  inhibition at 1 µM: 4%
KSR2
  inhibition at 1 µM: 7%
MAP2K2 (MEK2)
  inhibition at 1 µM: 87%
MAPKAPK3
  inhibition at 1 µM: 3%
MARK3
  inhibition at 1 µM: 31%
NEK4
  inhibition at 1 µM: 28%
PDGFRA V561D
  inhibition at 1 µM: 79%
PRKG1
  inhibition at 1 µM: 11%
PTK2B (FAK2)
  inhibition at 1 µM: 46%
CDK7/cyclin H/MNAT1
  inhibition at 1 µM: 27%
IRAK1
  inhibition at 1 µM: 91%
LRRK2 FL
  inhibition at 1 µM: 95%
LRRK2 G2019S
  inhibition at 1 µM: 95%
LRRK2 G2019S FL
  inhibition at 1 µM: 98%
PIK3C2A (PI3K-C2 alpha)
  inhibition at 1 µM: 14%
[1]
  inhibition at 1 µM: 33%
PIK3CG (p110 gamma)
  inhibition at 1 µM: 19%
PIP5K1B
  inhibition at 1 µM: 33%
PIP5K1C
  inhibition at 1 µM: 49%

From article PMC9186362, “Design and biological evaluation of substituted 5,7-dihydro-6H-indolo[2,3-c]quinolin-6-one as novel selective Haspin inhibitors” (Journal of Enzyme Inhibition and Medicinal Chemistry, 2022)
